This is an account of results in a melting point compilation (Tetko et al.; mined from patent text by program, amines drawn as free bases though some values may be those of a salt).

Bounds are passed on as bounds.

`CCCCCCCCCCN(C[C@H]1CC[C@H](CN(CCCCCCCCCC)C(=O)Nc2ccc(N(C)C)cc2)CC1)C(=O)Nc1ccc(N(C)C)cc1`: the melting point (commonly the temperature, or range, at which the solid turns liquid) lay in the range of 125 to 127 °C.

For `CCCCCC1CCC(c2ccc3c(c2F)C(F)(F)Oc2c-3ccc(OCCCC)c2F)CC1` (configuration not stated), the melting point amounted to 99 °C.

As to `Cc1nnc(-c2ccc3ccn(-c4ccc(S(C)(=O)=O)cc4)c3c2)o1`, the melting point is 228 to 229 °C.

Compound `CN(C)c1ccc2c(c1)C(=O)OC2` registered a melting point of 182 to 185 °C.

`C#CC1=CCC2C3CCC4=CC(=O)CCC4C3CCC12C` (configuration not stated) came in with a melting point of 148 to 152 °C.

As for `Cc1cc(C)cc(-c2cnn3c(-c4cccc(-c5nnn(CCN6CCCC6)n5)c4)ccnc23)c1`, the melting point turned out to be 60 °C.

`COc1c(C)cnc(C#N)c1C`: the melting point fell in the range of 59 to 61 °C.

As to `COC(=O)c1cc(C#CCOC2CCCCO2)c(C(F)(F)F)cc1N` (configuration not stated), the melting point was 88 °C.

On to `Cc1ccc(Cc2cnc(NCCCNc3ccc(Cl)cn3)[nH]c2=O)cn1`, for which the melting point lay in the range of 173 to 175 °C.

Compound `CCN(CC)c1nc2ncnn2c2c1cnc1c2cnn1CC` yielded a melting point of 215 to 217 °C.

`O=C(CC(=O)C(F)(F)F)Nc1cc(-c2ccncc2)n[nH]1`: the melting point was 364 to 366 °C.

Compound `CCCc1ccc(OCCC(C)C)c2c(=O)cc(-c3nnn[nH]3)oc12` had a melting point of 199 to 200 °C.

In turn, `O=C(O)C1=Cc2cc(Cl)c(I)cc2OC1C(F)(F)F` (configuration not stated) returned a melting point of 225 to 226 °C.

Compound `O=c1c2ccccc2cc(N2CCCCC2)c2ccccc12` displayed a melting point of 103 to 105 °C.

`CON(C)C(=O)Nc1ccc(OCc2ccc(C(C)C)cc2)cc1` yielded a melting point of 87.5 to 88 °C.

Consider `CC(=C1SC(=O)NC1=O)c1ccc(OCCOc2c(-c3ccc(F)c(F)c3)n(C)c3ccccc3c2=O)cc1`, for which the melting point was 248 to 250 °C.

On to `CC(=O)Oc1ccccc1C(=O)Nc1cc(Cl)c(OC(C)=O)c(Cl)c1`, for which the melting point lay in the range of 154 to 156 °C.

Compound `COc1cccc(C2(Cl)C(C)(C)C2(C)C)c1OC` displayed a melting point of 123 to 125 °C.

`Cc1c(C(=O)Nc2ccc(N3CCC(N4CCOCC4)CC3)c(C(F)(F)F)c2)cnn1-c1ccc(Cl)cc1` returned a melting point of 193 to 194 °C.

Consider `CCCCCCCCCCCCCCCCCC(=O)Oc1nc2c(N)ncnc2n1Cc1ccccc1`, for which the melting point is 128 to 129 °C.

Turning to `Cc1cc(SC(C)CC(Sc2cc(C)c(O)c(C(C)(C)C)c2)Sc2cc(C)c(O)c(C(C)(C)C)c2)cc(C(C)(C)C)c1O` (configuration not stated), the melting point was in the range of 65 to 69 °C.

`CC(C)N(CCn1c(-c2ccc(O)cc2)cc2c1CCCC2)C(C)C` came in with a melting point of 112 to 114 °C.

On to `CN(C)CCS(=O)(=O)NC(=O)CCn1c2ccc(O)cc2c2c3c(c(-c4ccccc4Cl)cc21)C(=O)NC3=O`, for which the melting point lay in the range of 229 to 233 °C.

For the compound `CCCc1nn(-c2ccc(C(F)(F)F)cn2)cc1COc1ccc(CCC(=O)O)c(C)c1`, the melting point was 129 to 130 °C.

The compound `O=C1c2ccccc2-c2c1c1ccccc1c(=O)n2CCCCCCO` gave a melting point of 139 to 141 °C.

With `O=C(O)c1ccc(CNC(=O)C2Cc3ccccc3N2S(=O)(=O)c2ccc(-c3cccc(C(F)(F)F)c3)cc2)c(Cl)c1` (configuration not stated), the melting point was 110 to 120 °C.

Take `CCN(CC)c1ccc(-c2cc(-c3ccc(C(=O)O)cc3)ccc2CCCNC2CCCC2)cc1C(C)(C)C`: the melting point was determined as 255 °C.

`COc1ccc2c(c1)c(Cc1cc(=O)n(-c3ccc(C)cc3)[nH]1)c(C)n2C(=O)c1ccc(Cl)cc1` registered a melting point of 131 to 133 °C.

Compound `COC(=O)NNC(=O)C(F)(F)F` returned a melting point of 105 °C.

Turning to `Cc1cc([C@@H]2C[C@H]2c2nc3ccccc3n2C)cc(-n2nc(C)nc2C)n1` (relative stereo), the melting point fell in the range of 157 to 159 °C.

In the case of `CCC(=S)NC[C@H]1CN(c2ccc(N3CCOCC3)c(F)c2)C(=O)O1`, the melting point lay within 138 to 139 °C.

In turn, `COCc1nc2c(OC)c3c(=O)n(C)c(COC)nc3c(OC)c2c(=O)n1C` displayed a melting point of 223 to 224 °C.

`CC1(COC(=O)N2CC=C(c3ccc(C(F)(F)F)cc3)CC2)Cn2cc([N+](=O)[O-])nc2O1` (configuration not stated) registered a melting point of 113 to 115 °C.

`Nc1nc(N)c(CCCCc2csc(OC(=O)N[C@@H](CCC(=O)O)C(=O)O)c2)c(O)n1` showed a melting point of 235 to 236 °C.

`COc1ccc(C=CC(=O)c2ccco2)c(OC)c1` gave a melting point of 57 to 59 °C.

For the compound `O=C(O)c1c(CN2CCC(c3ccccc3)(c3ccccc3)CC2)ncn1Cc1ccc(Cl)cc1`, the melting point lay in the range of 135 to 136 °C.

The compound `CC(=NO)C12CCCC(C1)C1CCC2C1` (configuration not stated) displayed a melting point of 157 to 158 °C.

`O=C1CC(=CN2CCOCC2)Oc2c(O)cccc21` came in with a melting point of 202 °C.

`Cc1cc(Cc2cc(C(C)(C)C)cc(-n3nc4ccccc4n3)c2O)c(O)c(C(C)(C)C)c1` came in with a melting point of 175 °C.

Consider `CC(C)COC(=O)Nc1cccc(-c2ccnc3c(Br)cnn23)c1`, for which the melting point was in the range of 90 to 92 °C.

The compound `CCNC(=O)c1c([Si](C)(C)C)ccc(I)c1Cl` showed a melting point of 128 to 130 °C.

In turn, `CC(C)(C)c1ccc(NC(=O)c2ccc(C#N)cc2)cc1` came in with a melting point of 210 to 211 °C.

Regarding `CCOC(=O)C(N=C(c1cc(Cl)ccc1N)c1ccccc1F)C(=O)OCC`, the melting point is 119 °C.

Consider `CC1(COC2CC3C4CCC5=CC(=O)C=CC5(C)C4(F)C(O)CC3(C)C2(O)C(=O)CCl)CO1` (configuration not stated), for which the melting point lay in the range of 193 to 236 °C.

Turning to `Cc1cc(C=O)ccc1C(O)c1cccnc1` (configuration not stated), the melting point was in the range of 97.5 to 99 °C.

The compound `COc1c(C)c2c(c(O)c1C/C=C(\C)C(O)C(C)(C)C(=O)O)C(=O)OC2` (configuration not stated) gave a melting point of 180 to 181 °C.

For `COC(=O)C=Cc1ccc(OC)c(C)c1`, the melting point fell in the range of 70 to 73 °C.

Compound `CCOCn1cc(C(C)=O)c2c(OC)cc(Br)nc21` registered a melting point of 114 to 116 °C.

On to `CS(=O)(=O)Nn1c(=O)[nH]c2cc(C(F)(F)F)c(Oc3cccnc3)cc2c1=O`, for which the melting point fell in the range of 194 to 196 °C.

The compound `CCCSc1cc2c(c3c1OC(C)(C)C3)C(c1cccc(C(=O)OCC)c1)=NC(C)(C)C2` came in with a melting point of 83 to 84 °C.

As for `CS[C@@H]1CC[C@H](C(=O)O)Cc2onc(-c3ccc(Cl)cc3)c21` (relative stereo), the melting point fell in the range of 241 to 242 °C.

As for `CON=Cc1cc(NC(=O)N2CCOCN2)c(F)cc1Cl`, the melting point fell in the range of 169 to 171 °C.

With `O=C(O)C(CC1CCCC1)c1ccc(-c2cccnc2)cc1` (configuration not stated), the melting point lay within 136 to 138 °C.

For the compound `Cc1ccc(Cn2nc(C(=O)O)cc2-c2ccc(Cl)c(C)c2)cc1`, the melting point came to 180 °C.

In turn, `COc1cc(C(=O)N2CCC(CCN3CCCN(c4nc5ccccc5n4CCOCC#N)CC3)(c3ccccc3)C2)cc(OC)c1OC` (configuration not stated) gave a melting point of 134 to 148 °C.

The compound `N#Cc1ccc(OCCCCC(=O)O)cc1` had a melting point of 160 °C.

Consider `NC(Cc1ccc(O)c(O)c1)P(O)O` (configuration not stated), for which the melting point lay in the range of 237 to 238 °C.

`O=C1N(Cc2cnc(O)nc2)c2ccccc2C12COc1cc3c(cc12)OCCO3` (configuration not stated) displayed a melting point of over 250 °C.

On to `O=C1CN(NC(=O)NC(C(=O)O)c2ccccc2)C(=O)N1` (configuration not stated), for which the melting point lay within 139 to 143 °C.

`CN(c1cccc2cc(-c3ncc(CN4CCOCC4)s3)[nH]c12)S(=O)(=O)c1cccs1` had a melting point of 181 to 182 °C.

Compound `CCCCCCCCCCCCCCCCCCOc1ccc(NC(=O)c2ccc(OC(C)=O)cc2)cc1` registered a melting point of 154 °C.

The compound `COc1cccc(CN2CCc3cc(OCc4ccccc4)c(OC)cc3C2)c1` registered a melting point of 71 to 72 °C.

Compound `Cc1cnc(C(=O)NCCc2ccc(S(N)(=O)=O)cc2)cn1` showed a melting point of 190 to 200 °C.

The compound `O=C(NNc1ccc([N+](=O)[O-])cc1)c1ccc(Cl)cc1` returned a melting point of 246 to 248 °C.

As for `Oc1c(Br)cc(-c2cccc3sc4c(Br)cccc4c23)cc1Br`, the melting point lay within 118 to 119 °C.

`COc1cc(N)c(Cl)cc1C(=O)N(C)OC` gave a melting point of 134 to 135 °C.

Compound `C=c1oc(=O)c(=O)oc1=C` came in with a melting point of 44 °C.

In turn, `CC(=O)OC(C)C(=O)Nc1ccc(C2=NNC(=O)CC2C)cc1` (configuration not stated) yielded a melting point of 198 to 200 °C.

Take `OC(CCCCCOc1cccc(Cl)c1)c1cccc(OCc2ccc3ccccc3n2)c1` (configuration not stated): the melting point was in the range of 69.5 to 70.5 °C.

Regarding `CSCc1nn(CCC#N)c(O)c1C`, the melting point came to 98 °C.

As to `COc1ccc([N+](=O)[O-])c(NCCC[C@H](N)C(=O)O)c1`, the melting point is 245 to 246 °C.

For `Cn1c(C(F)(F)F)ccc(-c2c(F)cc(Cl)c3oc(C(Br)Br)cc23)c1=O`, the melting point was in the range of 107 to 109 °C.

Compound `Cc1cn(N)c2ccc(OCc3ccccc3)cc12` came in with a melting point of 104 to 106 °C.

`c1cnn(-c2cc(-n3cccn3)ncn2)c1` returned a melting point of 133 to 134 °C.

With `CCC(O)(Cn1cncn1)C(C)(C)Cc1ccc(Cl)cc1` (configuration not stated), the melting point was in the range of 124 to 125 °C.

As to `C#CCC(O)(Cn1cncn1)c1ccc(Oc2ccc(Cl)cc2)cc1Cl` (configuration not stated), the melting point is 124 °C.

`O=C(c1ccccc1)c1cccc2c1CCCC2C(=O)O` (configuration not stated): the melting point lay within 164 to 165 °C.

Compound `CCCCOc1cc(CCS(=O)(=O)NC(=O)OCC(C)C)n(Cc2ccc(Cl)cc2Cl)n1` registered a melting point of 114 to 116 °C.

Turning to `COc1cc(-c2nc3ccc(OCCN4CCCC4)cc3n2Cc2ccccc2C(F)(F)F)cc(OC)c1OC`, the melting point was found to be 143 °C.

`CC12CC(=O)C3C(CCC4CC(=O)CCC43C)C1CCC2C(=O)CO` (configuration not stated) gave a melting point of 164 to 170 °C.

Consider `OC(=S)CCc1ccc(Cl)c(Cl)c1`, for which the melting point lay within 63 to 64 °C.

`CS(=O)(=O)N(Cc1ccccc1)c1ccc(C(=O)CBr)cc1` had a melting point of 101 to 103 °C.

Take `Cc1cnc(CCCCNc2ncc(Cc3ccc(C)nc3)c(=O)[nH]2)c(N)c1`: the melting point lay in the range of 86 to 89 °C.

Regarding `Cc1cccc(-c2[nH]c(C(C)C)nc2-c2cccc(-c3ccc(NC(=O)NN4CCOCC4)cc3)c2)n1`, the melting point was 146 to 148 °C.

`CSc1nccc(-c2ccc(NC(=O)c3cc(F)cc(N4CCOCC4)c3)c3ccccc23)n1` showed a melting point of 135 to 138 °C.

Consider `COc1cccc(OC)c1CN1C(=O)C2CCCN2c2ncccc21` (configuration not stated), for which the melting point is 200 to 202 °C.

In the case of `Cn1cnc(COc2nn3c(-c4ccon4)nnc3c3ccccc23)c1`, the melting point was 191 to 192 °C.
